Source: publication PMC10298530, “Synthesis and Anticancer Activity of A-Ring-Modified Derivatives of Dihydrobetulin” (International Journal of Molecular Sciences, 2023)
“And” between values parts separate entries of the source, which are not always exact repeats. Equal values may be shown once. Read-outs that look alike come from different tables or passages of the source.

Columns and labels:
HBL-100/Dox cells [1] = assay: Annexin V-FITC/PI assay, HBL-100/Dox; type: cell-based, human; settings: 16 h, dose IC50
Protocol: (§1) Briefly, after exposing the cells to the tested and control compounds for 16 h, the cells were detached with accutase (HiMedia Laboratories, Maharashtra, India) and washed with cold PBS. Then, the cells were re-suspended in 100 μL of 1 × Binding Buffer at concentration 1 × 10^6 cells/mL and incubated with 5 μL Annexin V-FITC and 5 μL propidium iodide (PI) for 15 min at room temperature in darkness. After incubation, 400 μL of 1 × Binding Buffer was added to each tube. The samples were analyzed by flow cytometry (CytoFlex S, Beckman Coulter, Brea, CA, USA) within 1 h of staining, and the findings were analyzed using a trial version of the Kaluza software (Beckman Coulter, Brea, CA, USA).

HBL-100 cells [2] = assay: Annexin V-FITC/PI assay, HBL-100; type: cell-based, human; settings: 16 h, dose IC50
Protocol: as §1

PC-3 = assay: MTT cell viability assay, PC-3; type: cell-based, human; settings: Homo sapiens; PC-3, MTT, 72 h of treatment; read-out: IC50 Values (Mean ± SD)
Source text: (§2) Blokhin National Medical Research Center of Oncology (the Ministry of Health of the Russian Federation, Moscow).

HEK293 = assay: MTT cell viability assay, HEK293; type: cell-based; settings: Homo sapiens
Source text: as §2

RD TE32 = assay: MTT cell viability assay, RD TE32; type: cell-based, human; settings: Homo sapiens
Source text: as §2

HBL-100 = assay: MTT cell viability assay, HBL-100; type: cell-based, human; settings: Homo sapiens
Protocol: (§3) The cells were cultured in a humidified CO2 incubator (model 460-CE; Thermo Fisher Scientific, Waltham, MA, USA) at +37 °C and 5% CO2.
(§4) The percentage of the viable cells was calculated according to the following equation: cell viability (%) = 100 × (mean absorbance in the treatment group/mean absorbance in the control group). The results were expressed pictorially using Prism 6.0 (GraphPad Software, Boston, MA, USA).

HBL-100/Dox cells [3] = assay: Cell cycle analysis (DAPI, flow cytometry), HBL-100/Dox; type: cell-based, human; settings: HBL-100/Dox (resistant) cells, 12-24 h, IC50
Protocol: (§5) The cells were trypsinized and rinsed with the growth medium. Then, the cells were harvested by centrifugation at 500× g for 3 min, and the supernatant was discarded. The cells were washed with PBS (PanEco, Moscow, Russia) twice and centrifuged under similar conditions. The cells were resuspended in 500 μL of PBS, put into centrifuge tubes and fixed by adding 4.5 mL of 70% ethanol dropwise (on ice). The samples were fixed at 4 °C. Overnight, the fixed cells were centrifugally collected (1000× g, 4 °C, 5 min) and washed again with PBS. The cells were finally resuspended in DAPI with 0.1% Triton X-100 in PBS solution (10 μg/mL, Sigma–Aldrich, St. Louis, MO, USA), and stained for 30 min at room temperature in darkness. For each sample, at least 50,000 cells were analyzed using the CytoFlex S flow cytometer (Beckman Coulter, Brea, CA, USA). Cell cycle populations were quantified from DNA histograms with the FlowJo software (ver. X 10.0.7r2, FlowJo Software, San Jose, CA, USA).

HBL-100 cells [4] = assay: Cell cycle analysis (DAPI, flow cytometry), HBL-100; type: cell-based, human; settings: for Cell cycle of HBL-100, S-phase: dose = IC50
Protocol: as §5

MCF-7 = assay: MTT cell viability assay, MCF-7; type: cell-based, human; settings: Homo sapiens, MCF7
Source text: as §2

HBL-100/Dox cells [5] = assay: Hoechst 33342 / TMRE fluorescent microscopy, HBL-100/Dox; type: cell-based, human; settings: Hoechst 33342, 16 h, IC50 values (MK 1.8 µM)
Protocol: (§6) The DNA marker, termed Hoechst 33342 Ready Flow Reagent, was used as a stock solution (Invitrogen, ThermoFisher Scientific, USA). The mitochondrial marker, LumiTracker Mito TMRE (tetramethylrhodamine, ethyl ester; Lumiprobe, Moscow, Russia), was dissolved in DMSO as 1.0 mM stock solution. The marker of reactive oxygen species, H2DCFDA (Lumiprobe, Moscow, Russia), was dissolved in DMSO as 100.0 μM stock solution. After incubation, the cells were incubated with FBS-free culture medium containing the dye mixture of Hoechst 33342 (final concentration 1.0 μM) and LumiTracker Mito TMRE (final concentration 1.0 μM), or H2DCFDA dye taken alone (final concentration 1.0 μM), for 30 min at 37 °C in darkness. Fluorescence, at 420 nm (Hoechst 33342), at 510 nm (TMRE), and at 575 nm (H2DCFDA), of the test cultures (including controls) was analyzed immediately using a fluorescence microscope CKX 53 (Olympus, Tokyo, Japan). The TMRE fluorescence intensity was quantified using Fiji (ImageJ).

HBL-100 cells [6] = assay: Hoechst 33342 / TMRE fluorescent microscopy, HBL-100; type: cell-based, human; settings: Hoechst 33342, 16 h, IC50 values (MK 1.0 µM)
Protocol: as §6

HBL-100/Dox = assay: MTT cell viability assay, HBL-100/Dox; type: cell-based, human; settings: Homo sapiens
Protocol: as §3, §4

HEpG2 = assay: MTT cell viability assay, HEpG2; type: cell-based, human; settings: Homo sapiens
Source text: as §2

MS = assay: MTT cell viability assay, MS; type: cell-based, human; settings: Homo sapiens;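 for IC50 (mean ± SD): MS is a melanocyte cell line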
Source text: as §2

HCT116 = assay: MTT cell viability assay, HCT116; type: cell-based, human; settings: Homo sapiens, HCT-116; HCT116, MTT, 72 h of treatment; read-out: IC50 Values (Mean ± SD)
Source text: as §2

HBL-100/Dox cells [7] = assay: Combined action of compounds, MTT assay on HBL-100/Dox cells; type: cell-based, human; settings: 72 h, with 30 μM verapamil
Source text: The results were expressed pictorially using Prism 6.0 (GraphPad Software, Boston, MA, USA).

COc1cccc2c1C(=O)c1c(O)c3c(c(O)c1C2=O)C[C@@](O)(C(=O)CO)C[C@@H]3O[C@H]1C[C@H](N)[C@H](O)[C@H](C)O1 [Dox, doxorubicin, reference compound]
Dead cells (HBL-100/Dox cells [1]): 0.84±0.24%
Early apoptotic cells (HBL-100/Dox cells [1]): 2.56 ± 0.36% and 2.56±0.37%
Late apoptotic cells (HBL-100/Dox cells [1]): 0.82±0.55%
Viable cells (HBL-100/Dox cells [1]): 95.74±1.10%
Dead cells (HBL-100 cells [2]): 1.80±0.31%
Early apoptotic cells (HBL-100 cells [2]): 12.35 ± 0.42%
Late apoptotic cells (HBL-100 cells [2]): 1.93±0.29%
Viable cells (HBL-100 cells [2]): 83.89±0.82%
IC50 (PC-3): 12.6 ± 0.2 µM
IC50 (HEK293; HEK293, MTT, 72 h of treatment, read-out: IC50 Values (Mean ± SD)): 0.4 ± 0.1 µM
IC50 (HEK293; Table S1, HEK293, read-out: IC50 (mean ± SD)): 0.44 ± 0.04 µM
IC50 (RD TE32; RD TE32, MTT, 72 h of treatment, read-out: IC50 Values (Mean ± SD)): 1.3 ± 0.1 µM
IC50 (RD TE32; Table S1, RD TE32, read-out: IC50 (mean ± SD)): 1.27 ± 0.03 µM
IC50 (HBL-100; HBL-100, MTT, 72 h of treatment, read-out: IC50 Values (Mean ± SD)): 0.4 ± 0.1 µM
IC50 (HBL-100; Table S1, HBL-100, read-out: IC50 (mean ± SD)): 0.35 ± 0.03 µM
effect on cell cycle progression (HBL-100/Dox cells [3]): induced the S phase arrest
Cell cycle of HBL-100, S-phase (HBL-100 cells [4]; 12 h): 48.19±0.09%
Cell cycle of HBL-100, S-phase (HBL-100 cells [4]; 13 h): 46.86±0.22%
Cell cycle of HBL-100, S-phase (HBL-100 cells [4]; 14 h): 48.25±0.51%
Cell cycle of HBL-100, S-phase (HBL-100 cells [4]; 15 h): 57.27±0.14%
Cell cycle of HBL-100, S-phase (HBL-100 cells [4]; 16 h): 61.28±2.01%
Cell cycle of HBL-100, S-phase (HBL-100 cells [4]; 17 h): 56.17±1.64%
Cell cycle of HBL-100, S-phase (HBL-100 cells [4]; 18 h): 55.42±0.92%
Cell cycle of HBL-100, S-phase (HBL-100 cells [4]; 24 h): 76.69±0.75%
effect on cell cycle progression (HBL-100 cells [4]; HBL-100 (parental) cells, 12-24 h, IC50): induced the S phase arrest
IC50 (MCF-7; MCF-7, MTT, 72 h of treatment, read-out: IC50 Values (Mean ± SD)): 0.4 ± 0.1 µM
IC50 (MCF-7; Table S1, MCF-7, read-out: IC50 (mean ± SD)): 0.38 ± 0.09 µM
number of cells with nuclear morphology changes (HBL-100/Dox cells [5]): 9.9%
number of cells with nuclear morphology changes (HBL-100 cells [6]): 25.2%
IC50 (HBL-100/Dox; HBL-100, 72 h, read-out: IC50 Values (Mean ± SD)): 29.6 ± 0.9 µM
IC50 (HBL-100/Dox; HBL-100, read-out: IC50 (mean ± SD)): 29.6 ± 0.94 µM
IC50 (HEpG2; HEpG2, MTT, 72 h of treatment, read-out: IC50 Values (Mean ± SD)): 1.8 ± 0.3 µM
IC50 (HEpG2; Table S1, HEpG2, read-out: IC50 (mean ± SD)): 1.78 ± 0.3 µM
IC50 (MS; MS, MTT, 72 h of treatment, read-out: IC50 Values (Mean ± SD)): 1.3 ± 0.2 µM
IC50 (MS; Table S1, MS, read-out: IC50 (mean ± SD)): 1.29 ± 0.16 µM
IC50 (HCT116): 1.3 ± 0.3 µM
diminution of IC50 value of Dox in combination with verapamil (HBL-100/Dox cells [7]): 37 fold
